Laboratory results: patent US20030187261A1, “Purine derivatives, process for their preparation and use thereof” (priority 2000, published 2003)
Entries after “also recorded” stand apart in the source; their conditions may differ. Where two headings read alike, the source gives them in different places.

Experiments:
[1] = tested on: PHA-stimulated lymphocytes (PBMC); assay: cell number of PHA-stimulated lymphocytes (PBMC), flow cytometry; type: cell-based, human; conditions: 96 hours, in the presence of IL-2
[2] = tested on: CD34+ hematopoietic progenitors (HPC) from adult bone marrow; assay: myeloid colony-forming unit (CFU) assay; type: cell-based, human; conditions: for IC50: 14 days, methylcellulose, total colony output; for output of the different types of myeloid colonies (CFU-E, CFU-G and CFU-M): scored differentially
[3] = tested on: myeloid leukemia KG1 cell line; assay: cell growth of KG1 cell line, flow cytometric cell count; conditions: for IC50: read-out: KGI IC50
KG1 cells = assay: apoptosis and cell cycle in KG1 cells (fluorescence microscopy, TUNEL); type: cell-based, human; conditions: for speed of apoptosis induction (microscopic examination): KG1, 6-72 hours of exposure, FIG. 4; for apoptotic cells in G0-G1 phase versus control cells: KG1, TUNEL with EB, FIG. 6
Protocol: Nuclear morphology of the cells was analysed with the fluorochromes Hoechst 33342 (λEx max 346 nm; λEm max 460 nm) (Sigma) prepared in phosphate-buffered saline (PBS at 0.1 mg/ml, added to the culture medium at a final concentration of 2 μg/ml and ethidium bromide (EB) (λEx max 540 nm; λEm max 625 nm) (Sigma) prepared in PBS at 100 μg/ml and added to the culture medium at a final concentration of 2 μg/ml (Lizard, 1995). Hundred cells were counted for each sample and percentage of apoptosis was determined.
Control and novel compound-treated cell cultures were washed with PBS and fixed in […] (pH 7.4) for 15 minutes on ice. After washing in PBS, cells were permeabilized in 70% cold (−20° C.) ethanol and transferred to 4° C. for at least 1 hour. After rehydratation in PBS, cells were labeled with 50 μl/well TUNEL reaction mixture (Boehringer Mannheim). Cells were incubated in this solution at 37° C. for 40 minutes, washed in PBS and resuspended in 500 μl PBS containing 5 μg/ml EB and 0.1% RNAse. After 30 minutes of incubation at 4° C., green (FITC-dUTP) and red (EB-DNA) fluorescence of individual cells was measured on a FACscan flow cytometer (Gorczyca, 1993). Negative control (fixed and permeabilized cells incubated with 50 μl label solution per well without terminal transferase, instead of TUNEL reaction mixture) and positive control (fixed and permeabilized cells incubated with DNase I (100 μg/ml) that induces DNA strand breaks) were included in each experimental set-up.
Flow cytometric detection of apoptosis combined with DNA staining can identify apoptotic cells and simultaneously evaluate their position in the cell cycle. This technique was used to provide infomation about the possible cell cycle specific initiation of apoptosis by the tested compounds. If more than 2% of apoptotic cells were detected by the TUNEL method and the absolute number of acquired apoptotic events exceeded 2000, DNA content was simultaneously measured. Within the apoptotic population, analysis and calculation of the different cell cycle phases was carried out by an iterative curve fitting procedure (ModFit LT cell cycle analysis sofware from Verity software house, INC).
Viable, apoptotic, necrotic (=primary necrosis, not following apoptosis) and secondarily necrotic cells (=late apoptotis, evolving to necrosis) were scored differentially after 6, 12, 24, 48 and 72 hours of exposure to novel compounds. For the three products a different apoptosis-inducing pattern could be observed. Apoptosis induction occurs fast after incubation with P23 and P28 but slower after incubation with P27.
Flow cytometric detection of apoptosis and cell cycle analysis: The induction of apoptotic death of KG1 cells by the novel compounds was confirmed using the TUNEL reaction technique (FIG. 5). […] Incubation of KG1 cell line with P27 results in detectable apoptosis after 24 hours. Percentage of apoptotic cells in G0-G1 increases with time, while the number of apoptotic cells in S+G2/M phases decreases. […] After 6 and 12 hours of incubation the apoptotic population seems mainly to evolve from S phase.

Row | IC50 ([2]; Homo sapiens, 336 h) [µM] | IC50 ([3]; Homo sapiens, KG-1, 96 h) [µM] | IC50 [2] [µM] | IC50 ([3]; 96 hours of culture) [µM] | Compound | CC50 ([1]; Homo sapiens, Lymphocyte, read-out: Lymphocytes IC50) [µM] | output of the different types of myeloid colonies (CFU-E, CFU-G and CFU-M) [2] | effectiveness on KG1 compared with normal PBMC ([3]; FIG. 2) | speed of apoptosis induction (microscopic examination) (KG1 cells) | apoptotic cells in G0-G1 phase versus control cells (KG1 cells) | IC50 [1] [µM] | cell number after 6 hours of exposure, wash and 7 days in drug-free medium ([3]; KG1, compared to control without novel compounds) | time of incubation after which apoptosis was detected (TUNEL) (KG1 cells; KG1) [h]
1 | > 50 | 8 ± 0.6 | – | – | CCCCCCNc1nc(NC(CO)c2ccccc2)c2ncn(C(C)C)c2n1 (stereo not drawn) [P23, 2-(hexylamino)-6-(1-phenyl-2-hydroxyethylamino)-9-isopropylpurine] | 15 ± 2 | significantly lower colony output | significantly more effective on KG1 than on normal PBMC; also recorded: significantly more effective on KG1 than on normal-PBMC | fast | no significant differences were detected | – | – | –
2 | – | – | 8.5 | 16 ± 1.3 | 2-(3-aminoethylamino)-6-(3,3-dihydroxybenzyl)amino-9-isopropylpurine [P28] | – | significantly lower colony output | – | fast | increase with time after 24 hours | 9 ± 2.2 | (some) recovery of cell number | 6
